From ChEMBL document CHEMBL1127218, “Synthesis, anti-human immunodeficiency virus, and anti-hepatitis B virus activity of pyrimidine oxathiolane nucleosides” (Bioorg Med Chem Lett, 1993)

Key:
[1] = test system: MT4; assay: Compound was tested for its anti-HIV activity in acutely infected MT-4 cells; assay type: functional, cell-based; details: Homo sapiens
[2] = test system: HepG2; assay: Percent inhibition for its anti-HBV activity in infected HepG2(2.2.15) cells at concentration of 1 uM; assay type: functional; details: Homo sapiens
[3] = test system: Vero; assay: Compound was tested for its cytotoxic activity in uninfected Vero cells; assay type: functional, cell-based; details: Chlorocebus sabaeus
[4] = Compound was tested for its cytotoxic activity in uninfected human peripheral blood mononuclear (PBM) cells; assay type: functional
[5] = Compound was tested for its anti-HIV activity against HIV-1 LAI in human peripheral blood mononuclear (PBM) cells; assay type: functional
[6] = test system: HepG2; assay: Percent inhibition for its anti-HBV activity in infected HepG2(2.2.15) cells at concentration of 25 uM; assay type: functional; details: Homo sapiens

EC50 [5] [µM]	Structure (SMILES)	EC50 [1] [µM]	inhibition at 1 µM [2] [%]	IC50 [3] [µM]	IC50 [4] [µM]	inhibition at 25 µM [6] [%]
0.06	Nc1ccn([C@@H]2CS[C@H](CO)O2)c(=O)n1 [LAMIVUDINE]	7	87	> 100	> 100	
> 100	O=c1ccn([C@H]2CS[C@@H](CO)O2)c(=O)[nH]1	> 200		> 100	> 100	0
> 100	O=c1[nH]c(=O)n([C@H]2CS[C@@H](CO)O2)cc1Br	> 200		> 100	> 100	11
38.7	Nc1nc(=O)n([C@H]2CS[C@@H](CO)O2)cc1Cl	> 200		> 100	> 100	58
2.4	Nc1nc(=O)n([C@H]2CS[C@@H](CO)O2)cc1Br	> 200		> 100	> 100	84
60.8	O=c1[nH]c(=O)n([C@H]2CS[C@@H](CO)O2)cc1Cl	> 200		> 100	> 100	59
> 100	O=c1[nH]c(=O)n([C@H]2CS[C@@H](CO)O2)cc1I	> 200		> 100	> 100	0
0.01	Nc1nc(=O)n([C@H]2CS[C@@H](CO)O2)cc1F	2.1	90	> 100	> 100	
> 100	O=c1[nH]c(=O)n([C@H]2CS[C@@H](CO)O2)cc1F	> 200		> 100	> 100	75
0.72	Nc1nc(=O)n([C@H]2CS[C@@H](CO)O2)cc1I	> 200		> 100	> 100	55
64.4	Cc1cn([C@H]2CS[C@@H](CO)O2)c(=O)[nH]c1=O	> 200		> 100	> 100	0
> 100	Cc1cn([C@H]2CS[C@@H](CO)O2)c(=O)nc1N	> 200		> 100	> 100	0
